Article PMC6934184, “Selective DNA-PKcs inhibition extends the therapeutic index of localized radiotherapy and chemotherapy” (The Journal of Clinical Investigation, 2019)

Target: T1, CLK3 (Homo sapiens, UniProt P49761)
T1 construct: purchased Thermo Fisher Scientific (Life Technologies) SelectScreen
Test: SelectScreen Z'LYTE
Type: biochemical
How it was run: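 NU5455 was profiled across the SelectScreen Broad panel of kinase activity and binding assays. Z'LYTE reactions such as CSF1R ran at apparent Km ATP, while the Adapta CAMK1 assay used ATP listed as 10. Values are given as percent.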

T1 sequence (P49761 whole entry): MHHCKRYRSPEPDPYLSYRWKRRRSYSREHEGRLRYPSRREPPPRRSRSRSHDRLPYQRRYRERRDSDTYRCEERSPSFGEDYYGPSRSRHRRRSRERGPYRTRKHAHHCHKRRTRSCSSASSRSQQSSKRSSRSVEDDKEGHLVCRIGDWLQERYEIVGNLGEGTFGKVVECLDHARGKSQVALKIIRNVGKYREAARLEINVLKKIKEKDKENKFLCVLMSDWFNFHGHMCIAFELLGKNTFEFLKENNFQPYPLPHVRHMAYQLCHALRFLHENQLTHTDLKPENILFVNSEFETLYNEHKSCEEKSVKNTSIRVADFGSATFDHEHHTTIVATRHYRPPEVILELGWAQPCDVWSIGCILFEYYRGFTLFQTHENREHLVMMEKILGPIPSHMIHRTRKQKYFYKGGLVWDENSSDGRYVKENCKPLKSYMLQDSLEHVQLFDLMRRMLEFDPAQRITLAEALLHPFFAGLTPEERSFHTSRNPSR

Q: Which inhibition at 1 µM does the source give for `CN(C(=O)CN1CCOCC1)c1ccc2sc3c(-c4cccc5c(=O)cc(N6CC7CCC(C6)O7)oc45)cccc3c2c1` [NU5455] here?
A: The inhibition at 1 µM was -0.5%.
